Experimental data published in patent US8993765B2, “Tetrahydro-azacarboline MCH-1 antagonists, methods of making, and uses thereof” (Albany Molecular Research, Inc., priority 2010, dated 2015).
Where a name gives a salt, the structure may show the parent alone.

Target: human MCH-1 receptor (Homo sapiens (Human), UniProt Q99705)
Assay: Binding Assay for Human Melanin-Concentrating Hormone (MCH-1) Receptor
Conditions: @ 1 uM test compound; membranes of CHO-K1 cells expressing human MCH-1 receptor; read-out: MCH1 percent inhibition of control radioligand specific binding
Experimental: Binding Assay for Human Melanin-Concentrating Hormone (MCH-1) Receptor
Evaluation of the affinity of compounds for the human MCH-1 receptor was accomplished using 4-(3,4,5-tritritiumbenzyloxy)-1-(1-(2-(pyrrolidin-1-yl)ethyl)-1H-indazol-5-yl)pyridin-2(1H)-one and membranes prepared from stable CHO-K1 cells expressing the human MCH-1 receptor obtained from Euroscreen (Batch 1138). Cell membrane homogenates (8.92 μg protein) were incubated for 60 min at 25° C. with […] of the [^3H]-labeled compound in the absence or presence of the test compound in 50 mM Tris-HCl buffer, pH 7.4. Nonspecific binding was determined in the presence of 50 μM 1-(5-(4-cyanophenyl)bicyclo[3.1.0]hexan-2-yl)-3-(4-fluoro-3-(trifluoromethyl)phenyl)-1-(3-(4-methylpiperazin-1-yl)propyl)urea. Following incubation, the samples were filtered rapidly under vacuum through Skatron 11731 filters, pre-soaked in 0.5% polyethylenimine, and washed with ice-cold 50 mM Tris-HCl buffer, pH 7.4, (wash setting 9,9,0) using a Skatron cell harvester. The filters were counted for radioactivity in a liquid scintillation counter (Tri-Carb 2100TR, Packard) using a scintillation cocktail (Ultima Gold MV, Perkin Elmer).
The results are expressed as a percent inhibition of the control radioligand specific binding. The IC50 value (concentration causing a half-maximal inhibition of control specific binding) and Hill coefficient (nH) were determined by non-linear regression analysis of the competition curve using Hill equation curve fitting. The inhibition constant (Ki) was calculated from the Cheng Prusoff equation: (Ki=IC50/(1+(L/KD)), where L=concentration of radioligand in the assay, and KD=affinity of the radioligand for the receptor.

Sequence of human MCH-1 receptor (Q99705 whole entry): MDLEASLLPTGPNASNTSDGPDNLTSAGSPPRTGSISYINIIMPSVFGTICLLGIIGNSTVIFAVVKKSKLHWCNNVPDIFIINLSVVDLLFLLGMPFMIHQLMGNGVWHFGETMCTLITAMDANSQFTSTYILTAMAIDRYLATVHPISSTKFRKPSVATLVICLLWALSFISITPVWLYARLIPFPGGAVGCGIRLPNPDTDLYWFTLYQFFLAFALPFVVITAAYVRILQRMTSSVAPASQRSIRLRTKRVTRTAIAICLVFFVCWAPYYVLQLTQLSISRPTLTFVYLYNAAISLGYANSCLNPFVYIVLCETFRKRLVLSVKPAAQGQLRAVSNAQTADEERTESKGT

Row | inhibition at 1 µM [%] | Compound
1 | 61 | O=c1cc(-c2ccc(C(F)(F)F)cc2)ccn1-c1ccc2c(c1)nc1n2CCNC1 [Example 20, 1-(1,2,3,4-Tetrahydropyrazino[1,2-a]benzimidazol-8-yl)-4-(4-(trifluoromethyl)phenyl)pyridin-2(1H)-one hydrochloride]

Same assay, conditions: radioligand displacement, membranes of CHO-K1 cells expressing human MCH-1 receptor; Ki by Cheng Prusoff equation; hydrochloride; read-out: MCH1 Ki

Row | Ki [nM] | Compound
2 | 9.1 | CC1Cc2c(c3ccc(-n4ccc(OCc5ccccc5)cc4=O)nc3n2C)CN1 (single isomer, unassigned; (-)) [Example 17, (−)-4-(Benzyloxy)-1-(7,9-dimethyl-5,7,8,9-tetrahydro-6H-pyrido[3′,4′:4,5]pyrrolo[2,3-b]pyridin-2-yl)pyridin-2(1H)-one hydrochloride]
3 | 9.3 | CC1Cc2c(c3ccc(-n4ccc(OCc5ccccc5)cc4=O)nc3n2C)CN1.Cl (stereo not shown) [Example 13, 4-(Benzyloxy)-1-(7,9-dimethyl-5,7,8,9-tetrahydro-6H-pyrido[3′,4′:4,5]pyrrolo[2,3-b]pyridin-2-yl)pyridin-2(1H)-one hydrochloride]

Same assay, conditions: radioligand displacement, membranes of CHO-K1 cells expressing human MCH-1 receptor; Ki by Cheng Prusoff equation; read-out: MCH1 Ki

Row | Ki [nM] | Compound
4 | 81 | CC(=O)N1Cc2c(n(C)c3nc(-n4ccc(OCc5ccccc5)cc4=O)ccc23)CC1C (single isomer, unassigned; enantiomer a) [Example 29, 1-(6-Acetyl-7,9-dimethyl-5,7,8,9-tetrahydro-6H-pyrido[3′,4′:4,5]pyrrolo[2,3-b]pyridin-2-yl)-4-(benzyloxy)pyridin-2(1H)-one (Enantiomer A)]
5 | 7.1 | Cn1c2c(c3ccc(-n4ccc(OCc5ccccc5)cc4=O)nc31)CNCC2 [Example 2, 4-(Benzyloxy)-1-(9-methyl-5,7,8,9-tetrahydro-6H-pyrido[3′,4′:4,5]pyrrolo[2,3-b]pyridin-2-yl)pyridin-2(1H)-one dihydrochloride]
6 | 47 | Cn1c2c(c3ccc(N4CCN(CCc5ccccc5)CC4=O)nc31)CNCC2 [Example 3, 1-(9-Methyl-5,7,8,9-tetrahydro-6H-pyrido[3′,4′:4,5]pyrrolo[2,3-b]pyridin-2-yl)-4-phenethylpiperazin-2-one dihydrochloride]
7 | 15 | Cn1c2c(c3ccc(-n4ccc(OCc5ccc(F)cn5)cc4=O)nc31)CNCC2 [Example 4, 4-((5-Fluoropyridin-2-yl)methoxy)-1-(9-methyl-5,7,8,9-tetrahydro-6H-pyrido[3′,4′:4,5]pyrrolo[2,3-b]pyridin-2-yl)pyridin-2(1H)-one hydrochloride]
8 | 105 | Cn1c2c(c3ccc(-n4ccc(-c5ccc(C(F)(F)F)nn5)cc4=O)nc31)CNCC2 [Example 5, 1-(9-Methyl-5,7,8,9-tetrahydro-6H-pyrido[3′,4′:4,5]pyrrolo[2,3-b]pyridin-2-yl)-4-(6-(trifluoromethyl)pyridazin-3-yl)pyridin-2(1H)-one hydrochloride]
9 | 15 | Cn1c2c(c3ccc(-n4ccc(-c5ccc(C(F)(F)F)nc5)cc4=O)nc31)CNCC2 [Example 6, 1-(9-Methyl-5,7,8,9-tetrahydro-6H-pyrido[3′,4′:4,5]pyrrolo[2,3-b]pyridin-2-yl)-4-(6-(trifluoromethyl)pyridin-3-yl)pyridin-2(1H)-one hydrochloride]
10 | 71 | Cn1c2c(c3ccc(-n4ccc(OCc5ccc(C(F)(F)F)nc5)cc4=O)nc31)CNCC2 [Example 7, 1-(9-Methyl-5,7,8,9-tetrahydro-6H-pyrido[3′,4′:4,5]pyrrolo[2,3-b]pyridin-2-yl)-4-((6-(trifluoromethyl)pyridin-3-yl)methoxy)pyridin-2(1H)-one hydrochloride]
11 | 33 | Cn1c2c(c3ccc(-n4ccc(-c5ccc(C(F)(F)F)cn5)cc4=O)nc31)CNCC2 [Example 8, 1-(9-Methyl-5,7,8,9-tetrahydro-6H-pyrido[3′,4′:4,5]pyrrolo[2,3-b]pyridin-2-yl)-4-(5-(trifluoromethyl)pyridin-2-yl)pyridin-2(1H)-one hydrochloride]
12 | 78 | CC(=O)N1CCc2c(c3ccc(-n4ccc(-c5ccc(C(F)(F)F)nc5)cc4=O)nc3n2C)C1 [Example 9, 1-(6-Acetyl-9-methyl-5,7,8,9-tetrahydro-6H-pyrido[3′,4′:4,5]pyrrolo[2,3-b]pyridin-2-yl)-4-(6-(trifluoromethyl)pyridin-3-yl)pyridin-2(1H)-one]
13 | 4.7 | Cl.Cn1c2c(c3ccc(-n4ccc(-c5ccc(C(F)(F)F)cc5)cc4=O)nc31)CNCC2 [Example 10, 1-(9-Methyl-5,7,8,9-tetrahydro-6H-pyrido[3′,4′:4,5]pyrrolo[2,3-b]pyridin-2-yl)-4-(4-(trifluoromethyl)phenyl)pyridin-2(1H)-one hydrochloride]
14 | 71 | CC(=O)N1CCc2c(c3ccc(-n4ccc(OCc5ccccc5)cc4=O)nc3n2C)C1 [Example 11, 1-(6-Acetyl-9-methyl-5,7,8,9-tetrahydro-6H-pyrido[3′,4′:4,5]pyrrolo[2,3-b]pyridin-2-yl)-4-(benzyloxy)pyridin-2(1H)-one]
15 | 58 | CC1Cc2c(c3ccc(N4CCN(CCc5ccc(F)cc5)CC4=O)nc3n2C)CN1.Cl (stereo not shown) [Example 12, 1-(7,9-Dimethyl-5,7,8,9-tetrahydro-6H-pyrido[3′,4′:4,5]pyrrolo[2,3-b]pyridin-2-yl)-4-(4-fluorophenethyl)piperazin-2-one hydrochloride]
16 | 17 | Cn1c2c(c3ccc(-n4ccc(OCc5ccc(Cl)cc5Cl)cc4=O)nc31)CNCC2 [Example 15, 4-((2,4-Dichlorophenyl)methoxy)-1-(9-methyl-5,7,8,9-tetrahydro-6H-pyrido[3′,4′:4,5]pyrrolo[2,3-b]pyridin-2-yl)pyridin-2(1H)-one hydrochloride]
17 | 62 | O=c1cc(OCc2ccccc2)ccn1-c1ccc2c(c1)nc1n2CCNC1 [Example 18, 4-(Benzyloxy)-1-(1,2,3,4-tetrahydropyrazino[1,2-a]benzimidazol-8-yl)pyridin-2(1H)-one hydrochloride]
18 | 94 | CC(C)N1CCn2c(nc3cc(-n4ccc(OCc5ccccc5)cc4=O)ccc32)C1 [Example 21, 4-(Benzyloxy)-1-(2-(propan-2-yl)-1,2,3,4-tetrahydropyrazino[1,2-a]benzimidazol-8-yl)pyridin-2(1H)-one hydrochloride]
19 | 30 | O=c1cc(OCc2ccc(F)cn2)ccn1-c1ccn2c3c(nc2c1)CCNC3 [Example 23, 4-((5-Fluoropyridin-2-yl)methoxy)-1-(1,2,3,4-tetrahydropyrido[4′,3′:4,5]imidazo[1,2-a]pyridin-7-yl)pyridin-2(1H)-one hydrochloride]
20 | 616 | O=c1cc(-c2ccc(C(F)(F)F)nc2)ccn1-c1ccn2c3c(nc2c1)CCNC3 [Example 24, 1-(1,2,3,4-Tetrahydropyrido[4′,3′:4,5]imidazo[1,2-a]pyridin-7-yl)-4-(6-(trifluoromethyl)pyridin-3-yl)pyridin-2(1H)-one hydrochloride]
21 | 3320 | O=c1cc(OCc2ccc(C(F)(F)F)nc2)ccn1-c1ccn2c3c(nc2c1)CCNC3 [Example 25, 1-(1,2,3,4-Tetrahydropyrido[4′,3′:4,5]imidazo[1,2-a]pyridin-7-yl)-4-((6-(trifluoromethyl)pyridin-3-yl)methoxy)pyridin-2(1H)-one hydrochloride]
22 | 19 | CC(C)N1CCc2nc3cc(-n4ccc(OCc5ccccc5)cc4=O)ccn3c2C1 [Example 27, 4-(Benzyloxy)-1-(2-(propan-2-yl)-1,2,3,4-tetrahydropyrido[4′,3′:4,5]imidazo[1,2-a]pyridin-7-yl)pyridin-2(1H)-one hydrochloride]
23 | 103 | Cn1c2c(c3ccc(-n4ccc(OCc5ccccc5)cc4=O)nc31)C(=O)NCC2 [Example 28, 4-(Benzyloxy)-1-(9-methyl-5-oxo-5,7,8,9-tetrahydro-6H-pyrido[3′,4′:4,5]pyrrolo[2,3-b]pyridin-2-yl)pyridin-2(1H)-one]

Row | Compound | Ki [nM]
24 | O=c1cc(-c2ccc(C(F)(F)F)cc2)ccn1-c1ccn2c3c(nc2c1)CCNC3 [Example 26, 1-(1,2,3,4-Tetrahydropyrido[4′,3′:4,5]imidazo[1,2-a]pyridin-7-yl)-4-(4-(trifluoromethyl)phenyl)pyridin-2(1H)-one hydrochloride] | 23

Test system: not given
Assay: not given
Conditions: not given

Row | melting point | Compound
25 | 265 °C (dec.) | O=c1cc(-c2ccc(C(F)(F)F)nc2)ccn1-c1ccn2c3c(nc2c1)CCNC3 (as salt: hydrochloride) [Example 24, 1-(1,2,3,4-Tetrahydropyrido[4′,3′:4,5]imidazo[1,2-a]pyridin-7-yl)-4-(6-(trifluoromethyl)pyridin-3-yl)pyridin-2(1H)-one hydrochloride]
26 | 265 °C (dec.) | O=c1cc(OCc2ccc(C(F)(F)F)nc2)ccn1-c1ccn2c3c(nc2c1)CCNC3 (as salt: hydrochloride) [Example 25, 1-(1,2,3,4-Tetrahydropyrido[4′,3′:4,5]imidazo[1,2-a]pyridin-7-yl)-4-((6-(trifluoromethyl)pyridin-3-yl)methoxy)pyridin-2(1H)-one hydrochloride]
27 | 238 to 242 °C | CC(=O)N1CCc2c(c3ccc(-n4ccc(-c5ccc(C(F)(F)F)nc5)cc4=O)nc3n2C)C1 [Example 9, 1-(6-Acetyl-9-methyl-5,7,8,9-tetrahydro-6H-pyrido[3′,4′:4,5]pyrrolo[2,3-b]pyridin-2-yl)-4-(6-(trifluoromethyl)pyridin-3-yl)pyridin-2(1H)-one]
28 | 278 to 281 °C (dec.) | Cl.Cn1c2c(c3ccc(-n4ccc(-c5ccc(C(F)(F)F)cc5)cc4=O)nc31)CNCC2 [Example 10, 1-(9-Methyl-5,7,8,9-tetrahydro-6H-pyrido[3′,4′:4,5]pyrrolo[2,3-b]pyridin-2-yl)-4-(4-(trifluoromethyl)phenyl)pyridin-2(1H)-one hydrochloride]
29 | 206 to 208 °C | CC(=O)N1CCc2c(c3ccc(-n4ccc(OCc5ccccc5)cc4=O)nc3n2C)C1 [Example 11, 1-(6-Acetyl-9-methyl-5,7,8,9-tetrahydro-6H-pyrido[3′,4′:4,5]pyrrolo[2,3-b]pyridin-2-yl)-4-(benzyloxy)pyridin-2(1H)-one]
30 | 252 to 256 °C | CC1Cc2c(c3ccc(N4CCN(CCc5ccc(F)cc5)CC4=O)nc3n2C)CN1.Cl (stereo not shown) [Example 12, 1-(7,9-Dimethyl-5,7,8,9-tetrahydro-6H-pyrido[3′,4′:4,5]pyrrolo[2,3-b]pyridin-2-yl)-4-(4-fluorophenethyl)piperazin-2-one hydrochloride]
31 | 285 to 289 °C | CC1Cc2c(c3ccc(-n4ccc(OCc5ccccc5)cc4=O)nc3n2C)CN1.Cl (stereo not shown) [Example 13, 4-(Benzyloxy)-1-(7,9-dimethyl-5,7,8,9-tetrahydro-6H-pyrido[3′,4′:4,5]pyrrolo[2,3-b]pyridin-2-yl)pyridin-2(1H)-one hydrochloride]
